Data: patent EP4516309A1, “CRHR1 AGONISTS FOR USE IN THE TREATMENT OF SOCIAL ANXIETY DISORDERS” (Consejo Superior de Investigaciones Cientificas, priority 2023, dated 2025)

Molecular target: T1, inhibitory DREADD (Homo sapiens, UniProt P08173, A203G/Y113C)
T1 construct: host or cells: ILA CRH+ neurons of CRH-Cre mice, Cre-dependent AAV2/8 transduction in vivo
T1 sequence (P08173 1-479 Y113C/A203G): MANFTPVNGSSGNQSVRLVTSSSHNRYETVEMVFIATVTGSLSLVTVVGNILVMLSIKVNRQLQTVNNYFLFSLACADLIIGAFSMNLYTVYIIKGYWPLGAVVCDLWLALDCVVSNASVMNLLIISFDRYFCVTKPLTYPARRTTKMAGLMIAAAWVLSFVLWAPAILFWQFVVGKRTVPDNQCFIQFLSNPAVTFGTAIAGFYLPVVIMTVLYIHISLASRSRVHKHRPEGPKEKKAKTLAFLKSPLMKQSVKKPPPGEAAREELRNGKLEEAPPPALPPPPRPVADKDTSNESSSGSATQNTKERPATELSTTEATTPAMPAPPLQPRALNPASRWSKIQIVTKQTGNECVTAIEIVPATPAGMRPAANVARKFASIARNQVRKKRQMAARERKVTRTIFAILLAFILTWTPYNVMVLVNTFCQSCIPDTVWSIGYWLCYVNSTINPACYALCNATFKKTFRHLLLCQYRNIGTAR
Test: Repetitive social presentation test with chemogenetic silencing of ILA CRH cells
Assay type: in vivo, CRH-Cre mice
Conditions: CNO; iDREADD in ILA CRH cells
Description: Injection coordinates were the following (in mm from Bregma): AP: 1.65, ML: ±0.1, DV: -2.6. Injections were done bilaterally with 100 nl injected per site. AAV2/DJ hSyn.FLEX.mGFP.2A.Synatophysin-mRuby (Addgene #71760 prepared by the Stanford University vector core #1930), AAV2/8 hSyn.DIO.hM4D(Gi)-mCherry (Addgene #44362-AAV8), AAV2/8 hSyn.DIO.mCherry (Addgene #50459-AAV8), AAV2/5-hSyn-DIO-hM3D(Gq)-mCherry (Addgene, #44361-AAV5), AAV2/5 hsyn.DIO.mCherry (Addgene #50459-AAV5), AAV2/1 syn.FLEX.GCaMP6f.WPRE.SV40 (Addgene #100833-AAV1), AAV2/9 CMV-DIO-(mCherry-U6)-shRNA(anti-Crh) (VTA brain), AAV2/9 CMV-DIO-(mCherry-U6)-shRNA(scrambled) (VTA brain), AAV2/9 hSyn.FLEX.dsRed-shRNA(Vgat) (Addgene #67845), AAV 2/9 hSyn-flex-dsRed-shRNA(scrambled) (Addgene #71383), AAV2/2 CAG.FLEX.ArchT-tdTomato (Addgene #28305 prepared by the University of North Carolina vector core) and AAV2/2 CAG.FLEX.tdTomato (Addgene #28306 prepared by the University of North Carolina vector core) were injected into the ILA of CRH-Cre mice. Viruses expressed for a minimum of 2 weeks.
Repetitive social presentation test. […] Films were scored offline for social interaction by a trained observer blind to the experimental condition. Sniffing of any part of the body, allo-grooming and close following counted as social interaction. […]

C[N+]1([O-])CCN(C2=Nc3cc(Cl)ccc3Nc3ccccc32)CC1 [CNO, clozapine N-oxide]
interaction time during the repeated presentations: showed no decrease in interaction time
